Structures are written as SMILES. Entries after “also recorded” stand apart in the source; their conditions may differ.

In series [1] the target is T1, α-amylase from hog pancreas (Sus scrofa, UniProt P00690).
T1 sequence (P00690 16-511): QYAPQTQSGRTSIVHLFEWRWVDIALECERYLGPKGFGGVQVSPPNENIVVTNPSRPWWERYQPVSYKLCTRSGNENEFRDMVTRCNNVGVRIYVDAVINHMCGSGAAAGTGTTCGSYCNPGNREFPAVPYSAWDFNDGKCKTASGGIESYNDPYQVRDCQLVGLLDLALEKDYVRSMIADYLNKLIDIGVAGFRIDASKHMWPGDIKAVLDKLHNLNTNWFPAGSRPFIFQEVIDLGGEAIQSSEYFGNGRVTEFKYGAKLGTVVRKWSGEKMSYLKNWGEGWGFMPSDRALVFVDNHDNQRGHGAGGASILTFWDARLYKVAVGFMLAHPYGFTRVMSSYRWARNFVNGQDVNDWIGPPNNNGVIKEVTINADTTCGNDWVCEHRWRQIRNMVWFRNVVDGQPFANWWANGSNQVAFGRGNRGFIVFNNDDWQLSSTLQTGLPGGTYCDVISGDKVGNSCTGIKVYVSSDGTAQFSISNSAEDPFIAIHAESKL
Kind of series: α-Amylase inhibition assay (starch/DNS, absorbance 540 nm).

Series [2] addresses T2, α-Glucosidase from Saccharomyces cerevisiae (Saccharomyces cerevisiae, UniProt P53341). Kind of series: biochemical. The format is biochemical. The settings on record: for IC50: mean ± SD, enzyme 0.1 U/mL, p-NPG 0.25 mM, pH 6.8, 37 °C, read-out: α-Glucosidase inhibition (IC50).
The target in series [3] is T1, α-amylase from hog pancreas. As to the kind of experiment: α-Amylase inhibition kinetics (V vs [E], Lineweaver–Burk plots). Conditions: 3f 0-15.0 μM. Also on record: α-amylase from hog pancreas (EC3.2.1.1); from tissue; host or cells: hog pancreas. The series is classed as biochemical. The source says:
Compound 3f with the strongest inhibitory activity against α-amylase was selected as the representative compound for the enzyme inhibitory kinetic analysis.
The enzyme inhibition kinetics analysis was investigated. The operation method was similar with the assay of α-glucosidase, except the concentrations of test compound, enzyme and substrate.

For the next series, the system named is HepG2 cells. Kind of series: Cells cytotoxicity assay (MTT), HepG2. The format is cell-based. Conditions: 24 h treatment, under concentration of 100 µM. Here is the method:
(§1) 3T3–L1 or HepG2 cells were cultured in Dulbecco’s modified Eagle medium (DMEM) with 10% foetal bovine serum (FBS), 100 IU/mL penicillin and 100 IU/mL streptomycin at 37 °C under 5% CO2. 3T3-L1 cells (2 × 10^3) or HepG2 cells ([…]) were plated onto 96-well plate ([…]) and incubated for 24 h. After treated with compound (3a or 3f) for 24 h, the cells were added […] (0.5 mg/mL) and incubated for 4 h. Then […] was added to dissolve the blue insoluble MTT formazan. Finally, the absorbance was measured at 570 nm using a microplate reader. Each sample was performed in triplicate.

Another series deals with 3T3-L1 cells. As to the kind of experiment: Cells cytotoxicity assay (MTT), 3T3-L1. Conditions: 24 h treatment, under concentration of 100 µM. The series is classed as cell-based. The method, then: as §1
The target of series [4] is T2, α-Glucosidase from Saccharomyces cerevisiae. As to the kind of experiment: α-Glucosidase inhibition kinetics (V vs [E], Lineweaver–Burk plots). The series is classed as biochemical. Conditions: 3a 0-0.5 μM. The method, then:
To probe into the inhibition mechanism of OA derivatives (3a–3t) against α-glucosidase, compound 3a with the strongest inhibitory activity was selected as the representative compound for the enzyme inhibitory kinetic analysis. […] The inhibition kinetic behaviours were investigated using the Lineweaver–Burk plots.
The enzyme inhibition kinetics analysis was investigated using previously reported method with minor modifications[25]^,[26]. In brief, inhibitory effect was determined from the plots of absorbance change of OA derivatives at different concentrations with enzyme at different concentrations. The inhibition type was measured based on the Lineweaver–Burk plot of absorbance change of OA derivatives at different concentrations with p-NPG substrate at different concentrations.

T2 sequence (P53341 whole entry): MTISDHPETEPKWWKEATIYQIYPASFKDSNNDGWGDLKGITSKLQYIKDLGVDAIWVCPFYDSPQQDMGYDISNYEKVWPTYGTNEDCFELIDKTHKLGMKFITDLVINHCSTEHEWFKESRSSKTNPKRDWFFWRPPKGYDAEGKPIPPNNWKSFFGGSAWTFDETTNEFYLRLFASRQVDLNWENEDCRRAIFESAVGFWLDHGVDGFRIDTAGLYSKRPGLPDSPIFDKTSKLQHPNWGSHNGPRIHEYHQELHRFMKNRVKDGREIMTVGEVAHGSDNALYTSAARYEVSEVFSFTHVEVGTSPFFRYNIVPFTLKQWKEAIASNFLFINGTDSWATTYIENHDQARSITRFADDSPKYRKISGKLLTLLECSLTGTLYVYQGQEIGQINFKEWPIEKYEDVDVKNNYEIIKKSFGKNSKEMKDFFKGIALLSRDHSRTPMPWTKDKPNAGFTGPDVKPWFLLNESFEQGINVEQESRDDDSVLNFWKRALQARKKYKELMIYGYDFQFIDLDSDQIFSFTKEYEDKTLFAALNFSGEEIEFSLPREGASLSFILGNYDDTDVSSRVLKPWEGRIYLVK

For the compound `CC1(C)CC[C@]2(C(=O)O)CC[C@]3(C)C(=CCC4[C@@]5(C)CC/C(=N\OC(=O)c6ccc(F)cc6)C(C)(C)C5CC[C@]43C)C2C1` (stereo partly shown) [Compound 3n], the IC50 (usually the concentration that gives 50% inhibition) in series [1] turned out to be 70.2 ± 2.53 µM; in series [2] it was 1.96 ± 0.25 µM.

Turning to `Cc1ccc(/C=C/C(=O)O/N=C2\CC[C@@]3(C)C(CC[C@]4(C)C3CC=C3C5CC(C)(C)CC[C@]5(C(=O)O)CC[C@]34C)C2(C)C)cc1` (stereo partly shown) [Compound 3b], the IC50 in series [1] was 15.3 ± 1.41 µM; in series [2] it was 0.68 ± 0.03 µM.

For `CC1(C)CC[C@]2(C(=O)O)CC[C@]3(C)C(=CCC4[C@@]5(C)CC/C(=N\OC(=O)c6ccccc6)C(C)(C)C5CC[C@]43C)C2C1` (stereo partly shown) [Compound 3k], the IC50 is 25.6 ± 1.66 µM in series [1] and 0.67 ± 0.04 µM in series [2].

As for `COc1ccc(/C=C/C(=O)O/N=C2\CC[C@@]3(C)C(CC[C@]4(C)C3CC=C3C5CC(C)(C)CC[C@]5(C(=O)O)CC[C@]34C)C2(C)C)cc1` (stereo partly shown) [Compound 3c], the IC50 in series [1] came to 25.4 ± 1.17 µM; in series [2] it was 0.89 ± 0.07 µM.

In the case of `CC1(C)CC[C@]2(C(=O)O)CC[C@]3(C)C(=CCC4[C@@]5(C)CC/C(=N\OC(=O)c6ccc7c(c6)OCO7)C(C)(C)C5CC[C@]43C)C2C1` (stereo partly shown) [Compound 3s], the IC50 was found to be 18.7 ± 1.29 µM in series [1] and 1.37 ± 0.06 µM in series [2].

Consider `CC1(C)CC[C@]2(C(=O)O)CC[C@]3(C)C(=CCC4[C@@]5(C)CC/C(=N\OC(=O)c6ccc([N+](=O)[O-])cc6)C(C)(C)C5CC[C@]43C)C2C1` (stereo partly shown) [Compound 3r], for which the figures for the IC50 in series [1] and in series [2] were 70.7 ± 1.25 µM and 1.41 ± 0.12 µM, respectively.

On to `CC1(C)CC[C@]2(C(=O)O)CC[C@]3(C)C(=CCC4[C@@]5(C)CC/C(=N\OC(=O)c6ccc(O)cc6)C(C)(C)C5CC[C@]43C)C2C1` (stereo partly shown) [Compound 3t], for which the figures for the IC50 in series [1] and in series [2] were 152 ± 4.24 µM and 0.91 ± 0.04 µM, respectively.

In the case of `Cc1ccc(C(=O)O/N=C2\CC[C@@]3(C)C(CC[C@]4(C)C3CC=C3C5CC(C)(C)CC[C@]5(C(=O)O)CC[C@]34C)C2(C)C)cc1` (stereo partly shown) [Compound 3l], the IC50 in series [1] was 55.3 ± 2.39 µM; in series [2] it was 0.99 ± 0.05 µM.

As to `COc1ccc(C(=O)O/N=C2\CC[C@@]3(C)C(CC[C@]4(C)C3CC=C3C5CC(C)(C)CC[C@]5(C(=O)O)CC[C@]34C)C2(C)C)cc1` (stereo partly shown) [Compound 3m], the values for the IC50 in series [1] and in series [2] were 35.5 ± 2.41 µM and 1.1 ± 0.1 µM, respectively.

Take `CC1(C)CCC2(C(=O)O)CCC3(C)C(=CCC4C5(C)CCC(=NOC(=O)C=Cc6ccc(Br)cc6)C(C)(C)C5CCC43C)C2C1` (stereo not shown) [Compound 3f]: the “Inhibition type towards α-amylase” value in series [3] (Lineweaver–Burk plots) is “mixed types; also recorded: mixed-type inhibitor”. The “Reversibility of α-amylase inhibition” value in series [3] (plots of V vs α-amylase concentration) is given as “reversible”. Further, in the series on HepG2 cells, the “Cytotoxicity to HepG2 cells” value is recorded as “non-cytotoxic”. Also, the “Cytotoxicity to 3T3-L1 cells” value in the series with 3T3-L1 cells was “non-cytotoxic”. The values for the IC50 in series [1] and in series [2] were 3.8 ± 0.65 µM and 1.28 ± 0.03 µM, respectively. In addition, the “α-amylase inhibition, times better than OA” value in series [1] (ratio of IC50 vs OA) was around 25 times. In addition, the “α-amylase inhibition, times better than acarbose” value in series [1] (ratio of IC50 vs acarbose) was around 26 times.

On to `CC1(C)CC[C@]2(C(=O)O)CC[C@]3(C)C(=CCC4[C@@]5(C)CC/C(=N\OC(=O)/C=C/c6ccc(F)cc6)C(C)(C)C5CC[C@]43C)C2C1` (stereo partly shown) [Compound 3d], for which the IC50 amounted to 17.5 ± 1.52 µM in series [1] and 1.45 ± 0.12 µM in series [2].

As for `CC1(C)CC[C@]2(C(=O)O)CC[C@]3(C)C(=CCC4[C@@]5(C)CC/C(=N\OC(=O)/C=C/c6ccc7c(c6)OCO7)C(C)(C)C5CC[C@]43C)C2C1` (stereo partly shown) [Compound 3i], the IC50 in series [1] came to 17.9 ± 1.21 µM; in series [2], 0.71 ± 0.02 µM.

As for `CC1(C)CC[C@]2(C(=O)O)CC[C@]3(C)C(=CCC4[C@@]5(C)CC/C(=N\OC(=O)/C=C/c6ccc([N+](=O)[O-])cc6)C(C)(C)C5CC[C@]43C)C2C1` (stereo partly shown) [Compound 3h], the IC50 was 18.3 ± 1.92 µM in series [1] and 1.36 ± 0.03 µM in series [2].

`CC1(C)CC[C@]2(C(=O)O)CC[C@]3(C)C(=CCC4[C@@]5(C)CC/C(=N\OC(=O)/C=C/c6ccc(C(F)(F)F)cc6)C(C)(C)C5CC[C@]43C)C2C1` (stereo partly shown) [Compound 3g]: the IC50 in series [1] worked out at 12.6 ± 2.37 µM; in series [2], 3.13 ± 0.13 µM.

In the case of `CC1(C)CC[C@]2(C(=O)O)CC[C@]3(C)C(=CCC4[C@@]5(C)CC/C(=N\OC(=O)c6ccc(Br)cc6)C(C)(C)C5CC[C@]43C)C2C1` (stereo partly shown) [Compound 3p], the IC50 in series [1] is 15.9 ± 1.75 µM; in series [2] it was 1.81 ± 0.05 µM.

`CC1(C)CC[C@]2(C(=O)O)CC[C@]3(C)C(=CCC4[C@@]5(C)CC/C(=N\OC(=O)/C=C/c6ccc(O)cc6)C(C)(C)C5CC[C@]43C)C2C1` (stereo partly shown) [Compound 3j]: the IC50 stood at 70.8 ± 2.31 µM in series [1] and 0.82 ± 0.09 µM in series [2].

For `CC1(C)CCC2(C(=O)O)CCC3(C)C(=CCC4C5(C)CCC(=NOC(=O)C=Cc6ccccc6)C(C)(C)C5CCC43C)C2C1` (stereo not shown) [Compound 3a], in the series with HepG2 cells, the “Cytotoxicity to HepG2 cells” value is listed as “non-cytotoxic”. For the same compound, in the series with 3T3-L1 cells, the “Cytotoxicity to 3T3-L1 cells” value was “non-cytotoxic”. Moreover, the IC50 in series [1] was 7.86 ± 1.24 µM; in series [2] it was 0.35 ± 0.06 µM. Moreover, the “α-glucosidase inhibition, times stronger than OA” value in series [2] (ratio of IC50 vs OA) was around 11 times. Moreover, the “α-glucosidase inhibition, times stronger than acarbose” value in series [2] (ratio of IC50 vs acarbose) was around 1900 times. For the same compound, the “Inhibition type towards α-glucosidase” value in series [4] (Lineweaver–Burk plots) is “mixed-type inhibitor; also recorded: mixed types”. The “Reversibility of α-glucosidase inhibition” value in series [4] (plots of V vs [E]) was “reversible”.

For `CC1(C)CC[C@]2(C(=O)O)CC[C@]3(C)C(=CCC4[C@@]5(C)CC/C(=N\OC(=O)c6ccc(C(F)(F)F)cc6)C(C)(C)C5CC[C@]43C)C2C1` (stereo partly shown) [Compound 3q], the IC50 in series [1] was 33.6 ± 1.93 µM; in series [2] it was 3.43 ± 0.17 µM.

On to `CC1(C)CC[C@]2(C(=O)O)CC[C@]3(C)C(=CCC4[C@@]5(C)CC/C(=N\OC(=O)/C=C/c6ccc(Cl)cc6)C(C)(C)C5CC[C@]43C)C2C1` (stereo partly shown) [Compound 3e], for which the figures for the IC50 in series [1] and in series [2] were 5.64 ± 1.29 µM and 0.95 ± 0.06 µM, respectively.

Turning to `CC1(C)CC[C@]2(C(=O)O)CC[C@]3(C)C(=CCC4[C@@]5(C)CC/C(=N\OC(=O)c6ccc(Cl)cc6)C(C)(C)C5CC[C@]43C)C2C1` (stereo partly shown) [Compound 3o], the IC50 in series [1] is 26.3 ± 1.61 µM; in series [2], 1.74 ± 0.14 µM.

Values taken from article PMC8757604 (Journal of Enzyme Inhibition and Medicinal Chemistry, 2022).
